The assay addresses haemoglobin (Hb) (Homo sapiens, UniProt P68871+P69905). Description: SPR. Type of assay: binding.
Chain of haemoglobin (Hb) (P69905 2-142): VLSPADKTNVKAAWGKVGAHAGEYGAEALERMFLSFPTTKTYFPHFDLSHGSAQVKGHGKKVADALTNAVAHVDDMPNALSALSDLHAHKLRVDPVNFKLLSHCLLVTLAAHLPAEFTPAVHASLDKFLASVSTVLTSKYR
Chain of haemoglobin (Hb) (P68871 2-147): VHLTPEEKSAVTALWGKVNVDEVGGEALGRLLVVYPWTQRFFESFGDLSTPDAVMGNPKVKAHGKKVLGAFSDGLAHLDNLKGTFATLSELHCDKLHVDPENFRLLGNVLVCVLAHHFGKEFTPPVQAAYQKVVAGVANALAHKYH
`C/C1=C\CC[C@H](C)C(=O)C[C@@H](C(C)C)C(=O)C1` [curdione]: the affinity, expressed as Kd, was 3.8 µM. This counts as single-digit micromolar.

As for `C/C1=C\Cc2c(C)coc2C/C(C)=C/CC1` [furanodiene], the affinity, expressed as Kd, was 18.2 µM.

With `CC(C)=C1C/C=C(\C)CC/C=C(\C)CC1=O` [germacrone], the Kd – broadly, the free concentration of one partner at which half of the binding sites on the other are occupied at equilibrium, for simple one-to-one binding – was found to be 75.4 µM.

Turning to `C=C[C@]1(C)CC[C@@H](C(=C)C)C[C@H]1C(=C)C` [β-elemene], the Kd is 2.27 µM.

The values are drawn from publication PMC9313566 (Basic & Clinical Pharmacology & Toxicology, 2022).
